Measured values: PubChem BioAssay (NCI)
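Compound exposure: 48 hours, 5 concentrations, 96-well plates. GI50: concentration for 50% inhibition of growth. TGI is the concentration that stops growth completely.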

Assays:
Assay in all cases: DTP human tumour cell line panel, 48 h
SK-MEL-2 melanoma = system: SK-MEL-2 melanoma
MALME-3M melanoma = system: MALME-3M melanoma
ACHN renal = system: ACHN renal
NCI-H522 lung = system: NCI-H522 lung
HOP-92 NSCLC = system: HOP-92 NSCLC
UACC-62 melanoma = system: UACC-62 melanoma
UACC-257 melanoma = system: UACC-257 melanoma
SK-OV-3 ovarian = system: SK-OV-3 ovarian
KM12 colon = system: KM12 colon
OVCAR-5 ovarian = system: OVCAR-5 ovarian
U251 CNS = system: U251 CNS
MCF7 breast = system: MCF7 breast
PC-3 prostate = system: PC-3 prostate
SF-539 CNS = system: SF-539 CNS
BT-549 breast = system: BT-549 breast
OVCAR-8 ovarian = system: OVCAR-8 ovarian
SNB-19 CNS = system: SNB-19 CNS
HT29 colon = system: HT29 colon
UO-31 renal = system: UO-31 renal
OVCAR-4 ovarian = system: OVCAR-4 ovarian
SR leukemia = system: SR leukemia
RXF 393 renal = system: RXF 393 renal
A498 renal = system: A498 renal
OVCAR-3 ovarian = system: OVCAR-3 ovarian
HCC-2998 colon = system: HCC-2998 colon
HS 578T breast = system: HS 578T breast
MOLT-4 leukemia = system: MOLT-4 leukemia
CAKI-1 renal = system: CAKI-1 renal
SW-620 colon = system: SW-620 colon
SNB-75 CNS = system: SNB-75 CNS
A549 NSCLC = system: A549 NSCLC
SK-MEL-28 melanoma = system: SK-MEL-28 melanoma
MDA-MB-435 = system: MDA-MB-435
DU-145 prostate = system: DU-145 prostate
COLO 205 colon = system: COLO 205 colon
HCT-15 colon = system: HCT-15 colon
SN12C renal = system: SN12C renal
LOX IMVI melanoma = system: LOX IMVI melanoma
T-47D breast = system: T-47D breast
NCI-H23 lung = system: NCI-H23 lung
NCI-H460 lung = system: NCI-H460 lung
TK-10 renal = system: TK-10 renal
MDA-MB-231 breast = system: MDA-MB-231 breast
NCI-H226 lung = system: NCI-H226 lung
EKVX NSCLC = system: EKVX NSCLC
SF-295 CNS = system: SF-295 CNS
SF-268 CNS = system: SF-268 CNS
HOP-62 NSCLC = system: HOP-62 NSCLC
HL-60(TB) leukemia = system: HL-60(TB) leukemia
M14 melanoma = system: M14 melanoma
SK-MEL-5 melanoma = system: SK-MEL-5 melanoma
RPMI-8226 leukemia = system: RPMI-8226 leukemia
786-0 renal = system: 786-0 renal
HCT-116 colon = system: HCT-116 colon
NCI/ADR-RES ovarian = system: NCI/ADR-RES ovarian

Which GI50 (SK-MEL-2 melanoma) does the source give for NCCCCCCCCCCn1c2c(c3ccccc3c1=O)C(=O)c1ccccc1-2 here?
The GI50 was 2.04 µM.

And the TGI (SK-MEL-2 melanoma)?
Its TGI is 4.41 µM.

What about the GI50 (MALME-3M melanoma) of the same compound?
Its GI50 is 13.2 µM.

And the TGI (MALME-3M melanoma)?
Its TGI is 33.9 µM.

And the GI50 (ACHN renal)?
Its GI50 is 6 µM.

And the TGI (ACHN renal)?
The TGI was 18.2 µM.

What about the GI50 (NCI-H522 lung) of the same compound?
The GI50 was 2.84 µM.

What about the TGI (NCI-H522 lung) of the same compound?
The TGI was 8.4 µM.

And the GI50 (HOP-92 NSCLC)?
Its GI50 is 2.74 µM.

And the TGI (HOP-92 NSCLC)?
The TGI was 7.49 µM.

What about the GI50 (UACC-62 melanoma) of the same compound?
The GI50 was 13.7 µM.

And the TGI (UACC-62 melanoma)?
Its TGI is 29.4 µM.

And the GI50 (UACC-257 melanoma)?
The GI50 was 21.2 µM.

And the TGI (UACC-257 melanoma)?
Its TGI is 44.8 µM.

And the GI50 (SK-OV-3 ovarian)?
Its GI50 is 18.7 µM.

What about the TGI (SK-OV-3 ovarian) of the same compound?
The TGI was 35 µM.

What about the GI50 (KM12 colon) of the same compound?
The GI50 was 5.85 µM.

And the TGI (KM12 colon)?
The TGI was 21.9 µM.

What about the GI50 (OVCAR-5 ovarian) of the same compound?
The GI50 was 4.52 µM.

And the TGI (OVCAR-5 ovarian)?
The TGI was 15.3 µM.

And the GI50 (U251 CNS)?
Its GI50 is 10.1 µM.

And the TGI (U251 CNS)?
Its TGI is 24.7 µM.

What about the GI50 (MCF7 breast) of the same compound?
Its GI50 is 4.67 µM.

And the TGI (MCF7 breast)?
Its TGI is 20.2 µM.

And the GI50 (PC-3 prostate)?
The GI50 was 2.16 µM.

And the TGI (PC-3 prostate)?
Its TGI is 4.54 µM.

And the GI50 (SF-539 CNS)?
The GI50 was 1.83 µM.

And the TGI (SF-539 CNS)?
Its TGI is 3.52 µM.

What about the GI50 (BT-549 breast) of the same compound?
Its GI50 is 5.64 µM.

What about the TGI (BT-549 breast) of the same compound?
The TGI was 19.8 µM.

And the GI50 (OVCAR-8 ovarian)?
The GI50 was 3.34 µM.

What about the TGI (OVCAR-8 ovarian) of the same compound?
The TGI was 56.9 µM.

What about the GI50 (SNB-19 CNS) of the same compound?
Its GI50 is 8.31 µM.

And the TGI (SNB-19 CNS)?
The TGI was 28 µM.

And the GI50 (HT29 colon)?
The GI50 was 1.89 µM.

What about the TGI (HT29 colon) of the same compound?
Its TGI is 3.75 µM.

What about the GI50 (UO-31 renal) of the same compound?
Its GI50 is 6.16 µM.

What about the TGI (UO-31 renal) of the same compound?
Its TGI is 18.8 µM.

And the GI50 (OVCAR-4 ovarian)?
Its GI50 is 8.7 µM.

And the TGI (OVCAR-4 ovarian)?
The TGI was 25.1 µM.

What about the GI50 (SR leukemia) of the same compound?
The GI50 was 1.86 µM.

What about the TGI (SR leukemia) of the same compound?
Its TGI is 3.53 µM.

And the GI50 (RXF 393 renal)?
The GI50 was 15.2 µM.

What about the TGI (RXF 393 renal) of the same compound?
Its TGI is 36.7 µM.

And the GI50 (A498 renal)?
Its GI50 is 13.1 µM.

And the TGI (A498 renal)?
Its TGI is 33.7 µM.

What about the GI50 (OVCAR-3 ovarian) of the same compound?
The GI50 was 10.8 µM.

And the TGI (OVCAR-3 ovarian)?
The TGI was 27.3 µM.

What about the GI50 (HCC-2998 colon) of the same compound?
Its GI50 is 6.14 µM.

And the TGI (HCC-2998 colon)?
Its TGI is 19 µM.

And the GI50 (HS 578T breast)?
The GI50 was 13.6 µM.

What about the TGI (HS 578T breast) of the same compound?
The TGI was 36.4 µM.

What about the GI50 (MOLT-4 leukemia) of the same compound?
Its GI50 is 1.81 µM.

What about the TGI (MOLT-4 leukemia) of the same compound?
Its TGI is 3.32 µM.

What about the GI50 (CAKI-1 renal) of the same compound?
The GI50 was 14.7 µM.

And the TGI (CAKI-1 renal)?
Its TGI is 32.1 µM.

What about the GI50 (SW-620 colon) of the same compound?
Its GI50 is 2.33 µM.

And the TGI (SW-620 colon)?
Its TGI is 5.5 µM.

What about the GI50 (SNB-75 CNS) of the same compound?
Its GI50 is 5.01 µM.

What about the TGI (SNB-75 CNS) of the same compound?
The TGI was 17.5 µM.

What about the GI50 (A549 NSCLC) of the same compound?
The GI50 was 11.5 µM.

What about the TGI (A549 NSCLC) of the same compound?
Its TGI is 37 µM.

And the GI50 (SK-MEL-28 melanoma)?
Its GI50 is 3.97 µM.

And the TGI (SK-MEL-28 melanoma)?
The TGI was 14.8 µM.

What about the GI50 (MDA-MB-435) of the same compound?
The GI50 was 11.8 µM.

And the TGI (MDA-MB-435)?
Its TGI is 27.9 µM.

What about the GI50 (DU-145 prostate) of the same compound?
The GI50 was 3.46 µM.

What about the TGI (DU-145 prostate) of the same compound?
Its TGI is 11.2 µM.

What about the GI50 (COLO 205 colon) of the same compound?
Its GI50 is 3.58 µM.

And the TGI (COLO 205 colon)?
Its TGI is 12.7 µM.

What about the GI50 (HCT-15 colon) of the same compound?
The GI50 was 4.51 µM.

And the TGI (HCT-15 colon)?
Its TGI is 16.9 µM.

And the GI50 (SN12C renal)?
Its GI50 is 3.32 µM.

And the TGI (SN12C renal)?
The TGI was 9.41 µM.

What about the GI50 (LOX IMVI melanoma) of the same compound?
The GI50 was 2.65 µM.

What about the TGI (LOX IMVI melanoma) of the same compound?
The TGI was 7.06 µM.

What about the GI50 (T-47D breast) of the same compound?
The GI50 was 11.4 µM.

And the TGI (T-47D breast)?
Its TGI is 39 µM.

And the GI50 (NCI-H23 lung)?
The GI50 was 14.9 µM.

What about the TGI (NCI-H23 lung) of the same compound?
The TGI was 32.6 µM.

And the GI50 (NCI-H460 lung)?
Its GI50 is 4.06 µM.

And the TGI (NCI-H460 lung)?
The TGI was 18.5 µM.

And the GI50 (TK-10 renal)?
The GI50 was 6.55 µM.

And the TGI (TK-10 renal)?
The TGI was 20.9 µM.

And the GI50 (MDA-MB-231 breast)?
Its GI50 is 5.22 µM.

What about the TGI (MDA-MB-231 breast) of the same compound?
The TGI was 18 µM.

And the GI50 (NCI-H226 lung)?
Its GI50 is 20.4 µM.

And the TGI (NCI-H226 lung)?
Its TGI is 47.1 µM.

And the GI50 (EKVX NSCLC)?
Its GI50 is 17.3 µM.

What about the TGI (EKVX NSCLC) of the same compound?
The TGI was 37.8 µM.

And the GI50 (SF-295 CNS)?
Its GI50 is 6.48 µM.

What about the TGI (SF-295 CNS) of the same compound?
Its TGI is 22 µM.

What about the GI50 (SF-268 CNS) of the same compound?
The GI50 was 11.7 µM.

And the TGI (SF-268 CNS)?
Its TGI is 50.3 µM.

What about the GI50 (HOP-62 NSCLC) of the same compound?
Its GI50 is 4.84 µM.

What about the TGI (HOP-62 NSCLC) of the same compound?
The TGI was 17.3 µM.

What about the GI50 (HL-60(TB) leukemia) of the same compound?
The GI50 was 1.77 µM.

And the TGI (HL-60(TB) leukemia)?
The TGI was 3.44 µM.

What about the GI50 (M14 melanoma) of the same compound?
Its GI50 is 4.72 µM.

And the TGI (M14 melanoma)?
Its TGI is 16 µM.

What about the GI50 (SK-MEL-5 melanoma) of the same compound?
Its GI50 is 8.25 µM.

And the TGI (SK-MEL-5 melanoma)?
The TGI was 21.3 µM.

What about the GI50 (RPMI-8226 leukemia) of the same compound?
The GI50 was 2.16 µM.

And the TGI (RPMI-8226 leukemia)?
Its TGI is 4.47 µM.

And the GI50 (786-0 renal)?
The GI50 was 4.8 µM.

What about the TGI (786-0 renal) of the same compound?
The TGI was 19.4 µM.

What about the GI50 (HCT-116 colon) of the same compound?
The GI50 was 2.74 µM.

What about the TGI (HCT-116 colon) of the same compound?
The TGI was 7.66 µM.

And the GI50 (NCI/ADR-RES ovarian)?
Its GI50 is 10.9 µM.

What about the TGI (NCI/ADR-RES ovarian) of the same compound?
The TGI was 28.5 µM.
